Structures are written as SMILES. pIC50: −log10 of the molar value. Converted amounts (≈) assume the structure as drawn. “And” between values parts separate entries of the source, which are not always exact repeats. Equal values may be shown once. “Also recorded” adds a separate entry of the source. Read-outs that look alike come from different tables or passages of the source. Bounds are passed on as bounds.

The test system of one series is LAMA-84 cells. The experiment in a line: MTT cytotoxicity, LAMA-84. Format: cell-based, human. From the text: (§1) To evaluate the anticancer potential of the studied E. spiculifolia extract, we employed a diverse panel of human cancer cell lines alongside a non-malignant control. The hematological models included LAMA-84, a chronic myeloid leukemia line harboring the Philadelphia chromosome [t(9;22)], and HL-60, an acute promyelocytic leukemia line characterized by the t(15;17) translocation. These suspension cultures allowed us to assess the effects on leukemic cells with distinct genetic drivers. In parallel, we investigated the antitumor activity of the plant extract against reproductive system-associated carcinomas, including breast carcinoma cells (MCF-7 and MDA-MB-231) and a cervical cancer cell line (CASKI). MCF-7 cells are hormone-responsive and widely used to model estrogen receptor-positive disease, whereas MDA-MB-231 cells are triple-negative, highly aggressive, and resistant to conventional anti-hormonal therapy. To further broaden the spectrum, we included CASKI, a cervical carcinoma line associated with HPV16 infection, thereby extending the analysis to virally driven epithelial cancer. In addition, normal murine fibroblast cells (CCL-1) were used as a non-malignant comparator, enabling an assessment of selectivity between normal and malignant cells. The presence and degree of tumor selectivity was assessed by calculating the correspondent selectivity indices (SI, selectivity index), defined as the ratio between the half-inhibitory concentrations of the extract in healthy and malignant cells (Table 2).
(§2) The antiproliferative activity of the extract, gallic, oleanolic, and protocatechuic acids was screened against human malignant cell lines of hematological (LAMA-84, HL-60) and epithelial (MDA-MB-231, MCF-7, CASKI) origin, as well as normal murine fibroblast cells (CCL-1). All cell lines were purchased from the German Collection of Microorganisms and Cell Cultures (DSMZ GmbH, Braunschweig, Germany). Cell cultures were cultivated in a growth medium RPMI 1640 supplemented with 10% fetal bovine serum (FBS), 5% L-glutamine, and incubated under standard conditions of 37 °C and 5% humidified CO2 atmosphere.
(§3) The cytotoxic potential of the E. spiculifolia extract was studied using a validated method for assessing cell viability known as the Mosmann MTT test. The assay is colorimetric and measures the activity of mitochondrial enzymes, reducing the yellow dye MTT (3-(4,5-dimethylthiazol-2-yl)-2,5-diphenyltetrazolium bromide) to violet formazan crystals. According to protocol, exponential-phased cells were harvested and seeded (100 μL/well) in 96-well plates at the appropriate density. Following a 24 h incubation, cells were treated with serial dilutions of the extract in the concentration range 1000–31.3 μg/mL. Following a 72 h exposure, filter sterilized MTT substrate solution (5 mg/mL in PBS) was added to each well of the culture plate. A further 4h incubation allowed the reduction of the yellow MTT reagent into purple formazan crystals in metabolically active viable cells, which were dissolved in an isopropyl alcohol solution containing 5% formic acid prior to absorbance measurement at 550 nm. Untreated cells (100% cell viability) were used as negative control. Cisplatin was used as positive control.
(§4) Collected absorbance values were blanked against MTT and isopropanol solution and normalized to the mean value of untreated control (100% cell viability). The obtained data were fitted to “concentration-effect” curves and analyzed by means of non-linear regression in the GraphPad Prism 8.0 software. Statistical analyses were performed using one-way analysis of variance (ANOVA) to assess differences among experimental groups. Where significant differences were detected, post hoc comparisons were conducted using Tukey’s test.

A further series concerns HL-60 cells. The experiment in a line: MTT cytotoxicity, HL-60. Format: cell-based, human.
Source text: as §1, §2, §3, §4

Another series has as its system MDA-MB-231 cells. The experiment in a line: MTT cytotoxicity, MDA-MB-231. Type of series: cell-based, human.
Source text: as §1, §2, §3, §4

In another series the test system is MCF-7 cells. The experiment in a line: MTT cytotoxicity, MCF-7. Type of series: cell-based, human.
Source text: as §1, §2, §3, §4

The next series has as its system CASKI cells. In words: MTT cytotoxicity, CASKI. Type of series: cell-based, human.
Source text: as §1, §2, §3, §4

For series [1], the system named is CCL-1 normal murine fibroblast cells. In words: MTT cytotoxicity, normal fibroblasts CCL-1. Type of series: cell-based.
Source text: as §1, §2
as §3, with “Following a 72 h exposure, filter sterilized MTT substrate solution (5 mg/mL in PBS) was added to each well of the culture plate.” left out, “Untreated cells (100% cell viability) were used as negative control. Cisplatin was used as positive control.” left out
Collected absorbance values were blanked against MTT and isopropanol solution and normalized to the mean value of untreated control (100% cell viability). The obtained data were fitted to “concentration-effect” curves and analyzed by means of non-linear regression in the GraphPad Prism 8.0 software. […] Where significant differences were detected, post hoc comparisons were conducted using Tukey’s test.

Series [2] relates to cancer versus normal cell models. The arrangement: method as in PMID 36297448, doi:10.13005/bpj/3133, PMID 37108571. The note with it: depending on the cancer versus normal cell models applied; cited from earlier work.
In series [3] the test system is hepatocellular carcinoma HuH7 cells. Set-up: method as in PMID 20415421. Conditions: cited from earlier work.
Series [4] concerns triple-negative MDA-MB-231 breast cancer cells. The arrangement: method as in doi:10.3724/SP.J.1145.2010.00202. The note with it: cited from earlier work.
The subject of another series is HCT116. Set-up: method as in PMID 30928277. Conditions: cited from earlier work.
The next series has as its system SW480. Set-up: method as in PMID 30928277. Conditions: cited from earlier work.
Where [5] appears, read: Homo sapiens, LAMA-84, MTT, 72 h exposure, bcr-abl+ chronic myeloid leukemia, read-out: IC50 LAMA-84 (converted).
[6] abbreviates: Homo sapiens, LAMA-84, MTT, 72 h exposure, molar equivalent in brackets, read-out: IC50 LAMA-84 (converted).
The mark [7] stands for this setting: Homo sapiens, HL-60, MTT, 72 h exposure, promyelocytic leukemia, read-out: IC50 HL-60 (converted).
Setting [8] is: Homo sapiens, MDA-MB-231, MTT, 72 h exposure, triple-negative breast carcinoma, read-out: IC50 MDA-MB-231 (converted).
The mark [9] stands for this setting: Homo sapiens, MCF7, MTT, 72 h exposure, hormone-responsive breast carcinoma, read-out: IC50 MCF-7 (converted).
[10] abbreviates: Homo sapiens, Ca-Ski, MTT, 72 h exposure, cervical cancer, read-out: IC50 CASKI (converted).
[11] abbreviates: Mus musculus, MTT, 72 h exposure, normal murine fibroblast cells, read-out: IC50 CCL-1 (converted).
[12] abbreviates: 72 h, concentrations up to 500 μg/mL.

As to `N.N.[Cl][Pt][Cl]` [cisplatin, reference compound], the “IC50 LAMA-84” value in the series with LAMA-84 cells (MTT, 72 h exposure, bcr-abl+ chronic myeloid leukemia) is 11.4 ± 0.99 µg/mL. For the same molecule, the IC50 is 37.8 µM in the series on LAMA-84 cells (MTT, 72 h exposure, molar equivalent in brackets, read-out: IC50 LAMA-84 (converted)); 8.9 µM with HL-60 cells (MTT, 72 h exposure, molar equivalent in brackets, read-out: IC50 HL-60 (converted)); 57.1 µM in the series with MDA-MB-231 cells (MTT, 72 h exposure, molar equivalent in brackets, read-out: IC50 MDA-MB-231 (converted)); 51.6 µM with MCF-7 cells (MTT, 72 h exposure, molar equivalent in brackets, read-out: IC50 MCF-7 (converted)); 48.6 µM in the series on CASKI cells (MTT, 72 h exposure, molar equivalent in brackets, read-out: IC50 CASKI (converted)); 18.7 µM in series [1] (MTT, 72 h exposure, molar equivalent in brackets, read-out: IC50 CCL-1 (converted)). For the same molecule, the “SI LAMA-84” value with LAMA-84 cells (selectivity index = IC50 in CCL-1 / IC50 in LAMA-84) is given as less than 1. In addition, in the series with HL-60 cells (MTT, 72 h exposure, promyelocytic leukemia), the “IC50 HL-60” value was 2.7 ± 0.4 µg/mL. The “SI HL-60” value in the series on HL-60 cells (selectivity index = IC50 in CCL-1 / IC50 in HL-60) is recorded as 2.1. Besides, in the series with MDA-MB-231 cells (MTT, 72 h exposure, triple-negative breast carcinoma), the “IC50 MDA-MB-231” value amounted to 17.2 ± 1.3 µg/mL. Besides, the “SI MDA-MB-231” value in the series on MDA-MB-231 cells (selectivity index = IC50 in CCL-1 / IC50 in MDA-MB-231) is recorded as less than 1. For the same molecule, in the series on MCF-7 cells (MTT, 72 h exposure, hormone-responsive breast carcinoma), the “IC50 MCF-7” value turned out to be 15.5 ± 1.7 µg/mL. Further, the “SI MCF-7” value with MCF-7 cells (selectivity index = IC50 in CCL-1 / IC50 in MCF-7) is less than 1. In addition, the “IC50 CASKI” value in the series on CASKI cells (MTT, 72 h exposure, cervical cancer) amounted to 14.6 ± 1.9 µg/mL. Besides, the “SI CASKI” value with CASKI cells (selectivity index = IC50 in CCL-1 / IC50 in CASKI) is less than 1. Further, the “IC50 CCL-1” value in series [1] (MTT, 72 h exposure, normal murine fibroblast cells) stood at 5.6 ± 0.7 µg/mL. Further, the “SI values typically reported” value in series [2] was 1–40.

Take `COc1cccc2c1C(=O)c1c(O)c3c(c(O)c1C2=O)C[C@@](O)(C(=O)CO)C[C@@H]3O[C@H]1C[C@H](N)[C@H](O)[C@H](C)O1` [doxorubicin]: the “SI values typically reported” value in series [2] was 1–40.

Consider `O=C(O)c1cc(O)c(O)c(O)c1` [gallic acid], for which the IC50 is 6.2 µg/mL with LAMA-84 cells (setting [5]); 36.4 µM in the series with LAMA-84 cells (setting [6]); greater than 500 µg/mL in the series on HL-60 cells (setting [7]); greater than 500 µg/mL in the series with MDA-MB-231 cells (setting [8]); greater than 500 µg/mL in the series on MCF-7 cells (setting [9]); greater than 500 µg/mL in the series on CASKI cells (setting [10]). The concentration for half-maximal inhibition (IC50) in series [1] (setting [11]) was greater than 500 µg/mL. In the series on CASKI cells (72 h exposure), the “cytotoxicity against CASKI (in words)” value is “inactive”.

Take `CC1(C)CC[C@]2(C(=O)O)CC[C@]3(C)C(=CC[C@@H]4[C@@]5(C)CC[C@H](O)C(C)(C)[C@@H]5CC[C@]43C)[C@@H]2C1` [oleanolic acid]: the half-maximal inhibitory concentration (IC50) in the series on LAMA-84 cells (setting [5]) is 1.7 µg/mL; in the series with LAMA-84 cells (setting [6]), 3.7 µM; in the series with HL-60 cells (setting [7]), greater than 500 µg/mL; in the series with MDA-MB-231 cells (setting [8]), greater than 500 µg/mL; with MCF-7 cells (setting [9]) it was greater than 500 µg/mL; with CASKI cells (setting [10]), greater than 500 µg/mL. In addition, the half-inhibitory concentration (IC50) in [1] (setting [11]) is greater than 500 µg/mL. The “cytotoxicity against MDA-MB-231 (in words)” value in the series on MDA-MB-231 cells (setting [12]) is “inactive; also recorded: did not exert cytotoxic effects”. Also, the “cytotoxicity against MCF-7 (in words)” value in the series with MCF-7 cells (setting [12]) is “inactive; also recorded: did not exert cytotoxic effects”. In addition, the “cytotoxicity against CASKI (in words)” value with CASKI cells (72 h exposure) was “inactive”. Further, the pIC50 in series [3] was 4.00. Besides, in series [4], the “IC50 MDA-MB-231 (previous studies)” value is 38.8 µg/mL (≈ 85 µM).

For the molecule `O=C(O)c1ccc(O)c(O)c1` [protocatechuic acid], the IC50 was > 500 µg/mL and > 3.24 mM in the series with LAMA-84 cells (Homo sapiens, LAMA-84, 72 h, read-out: IC50 LAMA-84); greater than 500 µg/mL in the series on HL-60 cells (Homo sapiens, HL-60, 72 h, read-out: IC50 HL-60); 311 µg/mL in the series on MDA-MB-231 cells (Homo sapiens, MDA-MB-231, 72 h, read-out: IC50 MDA-MB-231); greater than 500 µg/mL in the series with MCF-7 cells (Homo sapiens, MCF7, 72 h, read-out: IC50 MCF-7); greater than 500 µg/mL in the series on CASKI cells (Homo sapiens, Ca-Ski, 72 h, read-out: IC50 CASKI); greater than 500 µg/mL in [1] (Mus musculus, Fibroblast, 72 h, read-out: IC50 CCL-1).

Take `C[C@H]1[C@H](C)CC[C@]2(C(=O)O)CC[C@]3(C)C(=CC[C@@H]4[C@@]5(C)CC[C@H](O)C(C)(C)[C@@H]5CC[C@]43C)[C@H]12` [ursolic acid]: the pIC50 in series [3] was 4.12; in the series on HCT116 it was 4.89; with SW480, 4.99.

(Values after PMC12526400, “Insight into Cytotoxic Potential of Erica spiculifolia Salisb (Balkan Heath)” (Plants, 2025).)
